These results are taken from US20010039287A1, “AROMATIC SULFONE HYDROXAMIC ACID METALLOPROTEASE INHIBITOR” (priority 1997, published 2001).

The target in one data set is recombinant human MMP-13 (Homo sapiens, UniProt P45452). In words: biochemical.
Another data set has as its target T1, recombinant human MMP-1 (Homo sapiens, UniProt P03956).
T1 construct: made in house; host or cells: transfected HT-1080 cells (provided by Dr. Harold Welgus, Washington University)
T1 sequence (P03956 100-469): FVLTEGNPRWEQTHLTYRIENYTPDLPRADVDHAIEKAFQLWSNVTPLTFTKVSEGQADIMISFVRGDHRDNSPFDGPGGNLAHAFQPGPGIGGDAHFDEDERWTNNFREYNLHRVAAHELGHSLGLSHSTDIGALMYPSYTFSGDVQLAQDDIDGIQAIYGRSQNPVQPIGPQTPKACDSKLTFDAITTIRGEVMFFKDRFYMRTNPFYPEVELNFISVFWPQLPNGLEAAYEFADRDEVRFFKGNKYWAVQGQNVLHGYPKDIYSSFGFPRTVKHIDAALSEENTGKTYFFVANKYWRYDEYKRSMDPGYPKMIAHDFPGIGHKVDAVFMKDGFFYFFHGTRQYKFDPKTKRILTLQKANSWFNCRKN
In words: biochemical.

The next data set has as its target T2, recombinant human MMP-2 (Homo sapiens, UniProt P08253).
T2 sequence (P08253 110-660): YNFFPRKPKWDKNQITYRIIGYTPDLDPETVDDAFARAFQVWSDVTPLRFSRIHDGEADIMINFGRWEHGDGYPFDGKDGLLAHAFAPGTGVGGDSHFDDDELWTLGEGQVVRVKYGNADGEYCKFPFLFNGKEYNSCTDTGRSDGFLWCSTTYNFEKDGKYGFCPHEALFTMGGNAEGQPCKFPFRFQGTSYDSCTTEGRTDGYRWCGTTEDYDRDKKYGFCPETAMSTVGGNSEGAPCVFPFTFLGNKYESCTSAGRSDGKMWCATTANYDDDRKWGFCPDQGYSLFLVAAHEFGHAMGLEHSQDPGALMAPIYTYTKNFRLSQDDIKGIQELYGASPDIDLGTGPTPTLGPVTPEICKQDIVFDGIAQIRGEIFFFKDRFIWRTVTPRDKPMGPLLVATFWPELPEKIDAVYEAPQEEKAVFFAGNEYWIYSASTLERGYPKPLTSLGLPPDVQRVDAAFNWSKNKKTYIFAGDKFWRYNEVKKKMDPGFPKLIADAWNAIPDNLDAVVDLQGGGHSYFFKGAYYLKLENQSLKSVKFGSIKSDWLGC
Nature of the data set: biochemical.

Details of data set [1]: AUC (0-∞): unit not given beside the values. The settings on record: for t½ Hour: Rat Intravenous 20 mpk.
The next data set has as its target recombinant human MMP-9 (Homo sapiens, UniProt P14780). In words: biochemical.
[2] abbreviates: Inhibition Table B, read-out: MMP-13 IC50.
Setting [3] is: Inhibition Table B, read-out: MMP-2 IC50.
Setting [4] is: Inhibition Table B, read-out: MMP-9 IC50.
[5] abbreviates: Inhibition Table B, read-out: MMP-1 IC50.

Where a name gives a salt, the structure may show the parent alone. Read-outs that look alike come from different tables or passages of the source.

Chain of recombinant human MMP-9 (P14780 107-707 limits assumed): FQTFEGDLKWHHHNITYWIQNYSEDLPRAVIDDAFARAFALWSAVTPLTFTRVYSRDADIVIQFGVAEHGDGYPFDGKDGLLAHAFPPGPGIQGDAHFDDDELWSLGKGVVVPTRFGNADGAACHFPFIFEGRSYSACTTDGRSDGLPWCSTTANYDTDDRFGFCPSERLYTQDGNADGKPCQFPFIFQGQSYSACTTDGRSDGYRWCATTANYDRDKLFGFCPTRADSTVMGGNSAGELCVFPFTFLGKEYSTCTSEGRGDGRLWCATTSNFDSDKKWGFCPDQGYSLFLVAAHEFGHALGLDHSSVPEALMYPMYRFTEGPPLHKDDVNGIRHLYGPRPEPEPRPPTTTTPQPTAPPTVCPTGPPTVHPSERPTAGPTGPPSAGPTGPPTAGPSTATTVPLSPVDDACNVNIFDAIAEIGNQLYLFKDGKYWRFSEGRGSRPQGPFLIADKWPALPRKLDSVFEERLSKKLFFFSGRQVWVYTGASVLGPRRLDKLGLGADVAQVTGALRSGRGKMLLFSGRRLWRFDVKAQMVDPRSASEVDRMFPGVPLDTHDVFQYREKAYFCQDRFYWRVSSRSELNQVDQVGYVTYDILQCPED

For `CC(=O)N1CCC(C(=O)NO)(S(=O)(=O)c2ccc(Oc3ccccc3)cc2)CC1` [Example 12], the IC50 is < 0.1 nM at recombinant human MMP-13, 464 nM at recombinant human MMP-1 and < 0.1 nM on recombinant human MMP-2 (MMP-2 IC50 (nM)). Moreover, the “AUC (0-∞)” value in data set [1] (rat, in vivo) came to 22.11. The t1/2 in data set [1] (rat, in vivo) was 0.86 h. Also, the “Blood Level @ 3 min” value in data set [1] (rat, in vivo, iv, 20 mg/kg) was 73.54 µg/mL.
With `O=C(NO)C1(S(=O)(=O)c2ccc(Oc3ccccc3)cc2)CCN(C2CC2)CC1` [Example 17], the IC50 at recombinant human MMP-13 turned out to be […]; on recombinant human MMP-1 (Inhibition Table A, read-out: MMP-1 IC50), 400 nM; on recombinant human MMP-2 (MMP-2 IC50 (nM)) it was 0.2 nM; on recombinant human MMP-9, […]. Moreover, the “AUC (0-∞)” value in data set [1] (rat, in vivo) is recorded as 37.10. Moreover, the “Blood Level @ 3 min” value was 63.44 µg/mL in data set [1] (rat, in vivo) and 63.44 µg/mL in data set [1] (rat, in vivo, iv, 20 mg/kg). The t1/2 in data set [1] (rat, in vivo) was 0.74 h. In data set [1] (rat, in vivo, 20 mg/kg), this molecule registered a BA of 35.9%. Besides, in data set [1] (rat, in vivo, 20 mg/kg), the BA % was 35.9%.
For the molecule `Cl.O=C(NO)C1(S(=O)(=O)c2ccc(Sc3ccccc3)cc2)CCN(C2CC2)CC1` [Example 32, 1-cyclopropyl-N-hydroxy-4-[[4-(phenylthio)phenyl]sulfonyl]-4-piperidine Carboxamide, Monohydrochloride], the half-maximal inhibitory concentration (IC50) on recombinant human MMP-13 (setting [2]) is 0.2 nM; on recombinant human MMP-1, > 10000 nM; at recombinant human MMP-2 (setting [3]) it was 0.1 nM; at recombinant human MMP-9 (setting [4]) it was 2.5 nM. In addition, in data set [1], the “t½ Hour” value was found to be 1.03 h.
The like results for `CN1CCC(C(=O)NO)(S(=O)(=O)c2ccc(Sc3ccccc3)cc2)CC1.Cl` [Example 33, N-hydroxy-1-methyl-4-[[4-(phenylthio)phenyl]sulfonyl]-4-piperidinecarboxamide, Monohydrochloride] were, in that order, 0.8 nM, > 10000 nM, 0.5 nM, 9.4 nM and 1.91 h.
With `C#CCN1CCC(C(=O)NO)(S(=O)(=O)c2ccc(Oc3ccc(C)c(C)c3)cc2)CC1.Cl` [Example 43, 4-[[4-(3,4-Dimethylphenoxyl)phenyl]sulfonyl]-N-hydroxy-1-(2-propynyl)-4-piperidinecarboxamide, Monhydrochloride], the figures for the IC50 on recombinant human MMP-13 (setting [2]), at recombinant human MMP-1 (setting [5]) and on recombinant human MMP-2 (setting [3]) were 0.8 nM, 7000 nM and 0.4 nM, respectively. Besides, in data set [1], the “t½ Hour” value amounted to 0.82 h.
For the molecule `Cc1cc(Oc2ccc(S(=O)(=O)C3(C(=O)NO)CCNCC3)cc2)ccc1Cl.Cl` [Example 79], the “t½ Hour” value in data set [1] stood at 1.82 h.
For `C#CCN1CCC(C(=O)NO)(S(=O)(=O)c2ccc(Oc3ccc(Cl)c(C)c3)cc2)CC1.Cl` [Example 81, 4-[[4-(4-chloro-3-methylphenoxy)phenyl]sulfonyl]-N-hydroxy-1-(2-propynyl)-4-piperidinecarboxamide, Monohydrochloride], the IC50 at recombinant human MMP-13 (setting [2]) turned out to be 0.3 nM; at recombinant human MMP-1 (setting [5]), 3300 nM; on recombinant human MMP-2 (setting [3]) it was 0.1 nM. Also, in data set [1], the “t½ Hour” value stood at 0.76 h.
Regarding `O=C(NO)C1(S(=O)(=O)c2ccc(Oc3ccccc3)cc2)CCOCC1` [Example 94, Tetrahydro-N-hydroxy-4-[(4-phenoxyphenyl)sulfonyl]-2H-pyran-4-carboxamide], the IC50 at recombinant human MMP-13 (setting [2]) and on recombinant human MMP-2 (setting [3]) was < 0.1 nM each time. In addition, the “t½ Hour” value in data set [1] came out at 1.71 h.
Take `Cl.O=C(NO)C1(S(=O)(=O)c2ccc(Oc3ccc(-n4ccnc4)cc3)cc2)CCOCC1` [Example 99, tetrahydro-N-hydroxy-4-[[4-[4-(1H-imidazol-1-yl)phenoxy]phenyl]-sulfonyl]-2H-pyran-4-carboxamide, Monohydrochloride]: the half-maximal inhibitory concentration (IC50) on recombinant human MMP-13 (setting [2]) was 1 nM; at recombinant human MMP-1 (setting [5]), > 10000 nM; on recombinant human MMP-2 (setting [3]) it was 0.4 nM. In addition, the “t½ Hour” value in data set [1] came out at 0.68 h.
With `O=C(NO)C1(S(=O)(=O)c2ccc(Oc3ccc(Cl)cc3)cc2)CCOCC1` [Example 100, 4-[[4-(4-chlorophenoxy)-phenyl]sulfonyl]-tetrahydro-N-hydroxy-2H-pyran-4-carboxamide], in data set [1], the “t½ Hour” value stood at 1.50 h.
As for `O=C(NO)C1(S(=O)(=O)c2ccc(Oc3ccccc3)cc2)CC[S+]([O-])CC1` (stereo not shown) [Example 111], the IC50 at recombinant human MMP-13 (setting [2]) was found to be 1.3 nM; on recombinant human MMP-1 (setting [5]) it was 3700 nM; at recombinant human MMP-2 (setting [3]) it was 0.5 nM. Besides, in data set [1], the “t½ Hour” value came to 0.65 h.
As for `O=C(NO)C1(S(=O)(=O)c2ccc(Oc3ccc(SC(F)(F)F)cc3)cc2)CCOCC1` [Example 382, Tetrahydro-N-hydroxy-4-[[4-[4-[(trifluoromethyl)thio]phenoxy]phenyl]-sulfonyl]-2H-pyran-4-carboxamide], the “t½ Hour” value in data set [1] came to 1.71 h.
Same read-out and setting: the value for `O=C(NO)C1(S(=O)(=O)c2ccc(Oc3ccc(C(F)(F)F)cc3)cc2)CCN(CCN2CCOCC2)CC1` [Example 388, N-hydroxy-1-[2-(4-morpholinyl)-ethyl]-4-[[4-[4-(trifluoromethyl)phenoxy]-phenyl]sulfonyl]-4-piperidinecarboxamide, Dihydrochloride] was 0.94 h.
Still for that read-out and setting: the value for `O=C(NO)C1(S(=O)(=O)c2ccc(Oc3ccc(C(F)(F)F)cc3)cc2)CCN(Cc2cccnc2)CC1` [Example 390, N-hydroxy-1-(3-pyridinylmethyl)-4-[[4-[4-trifluoromethyl)phenoxy]phenyl]-sulfonyl]-4-piperidinecarboxamide, Dihydrochloride] was 1.50 h.
On the same count and under the same terms, the same measure for `O=C(NO)C1(S(=O)(=O)c2ccc(Oc3ccc(C(F)(F)F)cc3)cc2)CCN(Cc2ccccn2)CC1` [Example 391, N-hydroxy-1-(2-pyridinylmethyl)-4-[[4-[4-(trifluoromethyl)phenoxy]phenyl]-sulfonyl]-4-piperidinecarboxamide, Dihydrochloride]: 1.45 h; for `Cl.O=C(NO)C1(S(=O)(=O)c2ccc(Oc3ccc4c(c3)OCCO4)cc2)CCN(C2CC2)CC1` [Example 408, 1-cyclopropyl-4-[[4-[(2,3-dihydro-1,4-benzodioxin-6-yl)oxy]phenyl]-sulfonyl]-N-hydroxy-4-piperidine-carboxamide, Monohydrochloride]: 3.30 h; for `Cl.O=C(NO)C1(S(=O)(=O)c2ccc(Oc3ccc(OC(F)(F)F)cc3)cc2)CCNCC1` [Example 410, N-hydroxy-4-[[4-[(trifluoromethoxy)phenoxy]phenyl]sulfonyl]-4-piperidinecarboxamide, Monohydrochloride]: 1.78 h.
In the case of `C#CCN1CCC(C(=O)NO)(S(=O)(=O)c2ccc(Oc3ccc(C(C)C)cc3)cc2)CC1.Cl` [Example 414, N-hydroxy-4-[[4-[4-(1-methylethyl)phenoxy]phenyl]sulfonyl]-1-(2-propynyl)-4-piperidinecarboxamide, Monohdyrochloride], the “t½ Hour” value in data set [1] was determined as 0.73 h.
Still for that read-out and setting: the value for `COCCN1CCC(C(=O)NO)(S(=O)(=O)c2ccc(Oc3ccc(OC(F)(F)F)cc3)cc2)CC1.Cl` [Example 416, N-hydroxy-1-(2-methoxyethyl)-4-[[4-[4-(trifluoromethoxy)phenoxy]phenyl]sulfonyl}-4-piperidinecarboxamide, Monohydrochloride] was 2.94 h; that for `COCCN1CCC(C(=O)NO)(S(=O)(=O)c2ccc(Oc3ccc(C(F)(F)F)cc3)cc2)CC1.Cl` [Example 418, N-hydroxy-1-(2-methoxyethyl)-4-[[4-[4-(trifluoromethyl)-phenoxy]phenyl]sulfonyl}-4-piperidinecarboxamide, Monohydrochloride] was 2.42 h.
Still for that read-out and setting: the same measure for `Cl.O=C(NO)C1(S(=O)(=O)c2ccc(Oc3ccc(C(F)(F)F)cc3)cc2)CCN(C2CC2)CC1` [Example 427, 1-cyclopropyl-N-hydroxy-4-[[4-[4-(trifluoromethyl)phenoxy]phenyl]sulfonyl]-4-piperidinecarboxamide, Monohydrochloride]: 2.85 h; for `CCN1CCC(C(=O)NO)(S(=O)(=O)c2ccc(OCc3ccc(C(F)(F)F)cc3)cc2)CC1.Cl` [Example 438, 1-ethyl-N-hydroxy-4-[[4-[[4-[trifluoromethyl)phenyl]methoxy]-phenyl]sulfonyl]-4-piperidine-carboxamide, Monohydrochloride]: 2.14 h.
